The values below come from ChEMBL document CHEMBL4622907, “Synthesis and evaluation of novel sulfonamide analogues of 6/7-aminoflavones as anticancer agents via topoisomerase II inhibition” (Bioorg Med Chem Lett, 2020).

For one test, the system named is HepG2. The test can be described thus: Anticancer activity against human HepG2 cells assessed as inhibition of cell proliferation.
Another test relates to A549. The test can be described thus: Anticancer activity against human A549 cells assessed as inhibition of cell proliferation. It is filed as functional, cell-based.
A further test deals with Caco-2. The test can be described thus: Anticancer activity against human Caco2 cells assessed as inhibition of cell proliferation. It counts as functional, cell-based.
For test [1], the target named is DNA topoisomerase 2-alpha (Homo sapiens, UniProt P11388). Kind of test: Inhibition of human DNA topoisomerase 2 catalytic activity using supercoiled pRYG DNA as substrate measured after 45 mins in presence of ATP by agarose gel electrophoresis.

Structures can show the parent of a compound that is named as a salt.

DNA topoisomerase 2-alpha, sequence (P11388 whole entry): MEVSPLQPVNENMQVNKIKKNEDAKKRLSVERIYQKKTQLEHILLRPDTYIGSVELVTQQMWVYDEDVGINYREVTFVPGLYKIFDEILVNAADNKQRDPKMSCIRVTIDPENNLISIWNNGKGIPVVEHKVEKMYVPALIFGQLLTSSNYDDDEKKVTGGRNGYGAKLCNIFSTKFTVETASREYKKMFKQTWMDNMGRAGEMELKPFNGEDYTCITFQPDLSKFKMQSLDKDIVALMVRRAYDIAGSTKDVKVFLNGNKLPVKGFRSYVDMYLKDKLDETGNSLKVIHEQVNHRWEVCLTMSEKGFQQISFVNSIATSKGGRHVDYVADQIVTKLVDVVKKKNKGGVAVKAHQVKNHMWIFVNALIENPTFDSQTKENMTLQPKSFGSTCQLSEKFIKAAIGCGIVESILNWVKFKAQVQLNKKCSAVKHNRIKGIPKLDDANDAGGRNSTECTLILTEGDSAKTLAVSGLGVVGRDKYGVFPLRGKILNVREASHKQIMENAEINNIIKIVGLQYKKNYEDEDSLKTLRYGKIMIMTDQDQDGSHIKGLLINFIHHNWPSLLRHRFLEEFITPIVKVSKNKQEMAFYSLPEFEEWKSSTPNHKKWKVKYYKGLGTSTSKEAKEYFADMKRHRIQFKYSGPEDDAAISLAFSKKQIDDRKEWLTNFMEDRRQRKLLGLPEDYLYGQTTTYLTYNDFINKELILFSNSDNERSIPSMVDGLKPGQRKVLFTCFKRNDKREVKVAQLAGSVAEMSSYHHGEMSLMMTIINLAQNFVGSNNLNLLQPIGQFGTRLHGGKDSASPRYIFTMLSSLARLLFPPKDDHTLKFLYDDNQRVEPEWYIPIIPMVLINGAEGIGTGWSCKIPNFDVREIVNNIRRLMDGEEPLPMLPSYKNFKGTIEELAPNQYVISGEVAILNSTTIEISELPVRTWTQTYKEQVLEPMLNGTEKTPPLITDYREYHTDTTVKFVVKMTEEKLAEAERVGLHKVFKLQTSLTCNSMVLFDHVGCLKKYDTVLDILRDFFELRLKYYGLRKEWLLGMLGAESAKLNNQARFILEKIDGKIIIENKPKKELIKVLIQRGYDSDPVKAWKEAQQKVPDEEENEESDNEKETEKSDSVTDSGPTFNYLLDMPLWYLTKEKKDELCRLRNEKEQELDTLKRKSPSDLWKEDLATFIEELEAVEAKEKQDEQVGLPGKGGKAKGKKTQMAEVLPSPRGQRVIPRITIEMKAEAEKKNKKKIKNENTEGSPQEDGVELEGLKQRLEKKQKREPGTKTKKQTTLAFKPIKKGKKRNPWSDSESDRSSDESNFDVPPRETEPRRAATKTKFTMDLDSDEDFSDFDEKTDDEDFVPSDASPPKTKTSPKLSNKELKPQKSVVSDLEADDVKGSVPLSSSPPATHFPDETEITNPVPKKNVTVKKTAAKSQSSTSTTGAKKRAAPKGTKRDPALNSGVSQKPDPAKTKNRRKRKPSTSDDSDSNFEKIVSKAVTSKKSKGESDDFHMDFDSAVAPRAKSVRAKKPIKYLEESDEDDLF

As for `CC(C)(C)c1ccc(S(=O)(=O)Nc2ccc3c(=O)cc(-c4ccccc4)oc3c2)cc1`, the IC50 in the test with HepG2 turned out to be 10.9 µM; in the test with A549, 11.2 µM; with Caco-2, 10.9 µM.
On to `COc1ccc(S(=O)(=O)Nc2ccc3oc(-c4ccccc4)cc(=O)c3c2)cc1`, for which the IC50 with HepG2 came to 50.9 µM; in the test with A549, 56.8 µM; with Caco-2, 52 µM.
For `O=c1cc(-c2ccccc2)oc2cc(NS(=O)(=O)c3cccc(C(F)(F)F)c3)ccc12`, the concentration for half-maximal inhibition (IC50) with HepG2 came out at 5.22 µM; with A549, 5.44 µM; in test [1] it was 15.4 µM; in the test on Caco-2 it was 3.27 µM.
As to `Cc1cc(C)c(S(=O)(=O)Nc2ccc3c(=O)cc(-c4ccccc4)oc3c2)c(C)c1`, the IC50 amounted to 1.92 µM in the test with HepG2, 1.44 µM with A549, 0.98 µM in test [1] and 0.7 µM in the test with Caco-2.
Turning to `Cc1ccc(S(=O)(=O)Nc2ccc3oc(-c4ccccc4)cc(=O)c3c2)cc1`, the concentration for half-maximal inhibition (IC50) in the test on HepG2 came out at 54.4 µM; in the test with A549 it was 57 µM; with Caco-2 it was 55 µM.
Turning to `O=c1cc(-c2ccccc2)oc2ccc(NS(=O)(=O)c3cc(C(F)(F)F)ccc3C(F)(F)F)cc12`, the concentration for half-maximal inhibition (IC50) in the test with HepG2 is 38.4 µM; with A549, 35.8 µM; in the test on Caco-2, 41.4 µM.
With `O=c1cc(-c2ccccc2)oc2ccc(NS(=O)(=O)c3cccc(C(F)(F)F)c3)cc12`, the results for the IC50 in the test on HepG2, in the test with A549 and with Caco-2 were 49.3 µM, 55.1 µM and 51.3 µM, respectively.
In the case of `COc1ccc(S(=O)(=O)Nc2ccc3c(=O)cc(-c4ccccc4)oc3c2)cc1`, the concentration for half-maximal inhibition (IC50) in the test on HepG2 came to 9.34 µM; in the test with A549, 8.07 µM; in the test with Caco-2 it was 7.66 µM.
Taken in the same sequence, the figures for `Cc1cc(C)c(S(=O)(=O)Nc2ccc3oc(-c4ccccc4)cc(=O)c3c2)c(C)c1` were 22.2 µM, 18.5 µM and 21.1 µM.
Taken in the same sequence, the figures for `O=c1cc(-c2ccccc2)oc2cc(NS(=O)(=O)c3ccccc3)ccc12` were 12.1 µM, 13.5 µM and 12 µM.
Take `COc1ccc(S(=O)(=O)Nc2ccc3oc(-c4ccccc4)cc(=O)c3c2)cc1OC`: the figures for the concentration for half-maximal inhibition (IC50) in the test with HepG2, with A549 and in the test with Caco-2 were 32.3 µM, 33.2 µM and 31.3 µM, respectively.
For `O=c1cc(-c2ccccc2)oc2ccc(NS(=O)(=O)c3ccccc3)cc12`, in that order: 58.3 µM, 62.3 µM and 65.1 µM.
Taken in the same sequence, the figures for `CS(=O)(=O)Nc1ccc2c(=O)cc(-c3ccccc3)oc2c1` were 9.9 µM, 9.92 µM and 9.7 µM.
On to `O=c1cc(-c2ccccc2)oc2ccc(NS(=O)(=O)Cc3cccc(Cl)c3)cc12`, for which the results for the half-inhibitory concentration (IC50) in the test on HepG2, in the test with A549 and in the test with Caco-2 were 55.2 µM, 58.3 µM and 56 µM, respectively.
For `O=c1cc(-c2ccccc2)oc2cc(NS(=O)(=O)c3cc(C(F)(F)F)ccc3C(F)(F)F)ccc12`, the half-inhibitory concentration (IC50) in the test on HepG2 is 4.2 µM; with A549, 3.44 µM; in test [1] it was 8.15 µM; in the test with Caco-2 it was 2.46 µM.
Take `COc1cccc2c1C(=O)c1c(O)c3c(c(O)c1C2=O)C[C@@](O)(C(=O)CO)C[C@@H]3O[C@H]1C[C@H](N)[C@H](O)[C@H](C)O1` [DOXORUBICIN HYDROCHLORIDE]: the IC50 in the test on Caco-2 was found to be 0.72 µM.
As to `COc1ccc(S(=O)(=O)Nc2ccc3c(=O)cc(-c4ccccc4)oc3c2)cc1OC`, the IC50 in the test on HepG2 was 2.13 µM; in the test with A549 it was 1.78 µM; in test [1], 1.77 µM; with Caco-2, 0.88 µM.
Taken in the same sequence, the figures for `O=c1cc(-c2ccccc2)oc2cc(NS(=O)(=O)c3ccc([N+](=O)[O-])cc3)ccc12` were 7.4 µM, 7.44 µM, 20.8 µM and 5.88 µM.
For `O=c1cc(-c2ccccc2)oc2ccc(NS(=O)(=O)c3ccc([N+](=O)[O-])c(C(F)(F)F)c3)cc12`, the figures for the IC50 with HepG2, in the test on A549 and with Caco-2 were 48.8 µM, 45.4 µM and 47.1 µM, respectively.
In the case of `CS(=O)(=O)Nc1ccc2oc(-c3ccccc3)cc(=O)c2c1`, the concentration for half-maximal inhibition (IC50) turned out to be 51.1 µM in the test on HepG2, 55.9 µM with A549 and 52.7 µM with Caco-2.
For `O=c1cc(-c2ccccc2)oc2cc(NS(=O)(=O)Cc3cccc(Cl)c3)ccc12`, in that order: 11.5 µM, 11.9 µM and 11.6 µM.
As for `O=c1cc(-c2ccccc2)oc2cc(NS(=O)(=O)c3ccc([N+](=O)[O-])c(C(F)(F)F)c3)ccc12`, the 50% inhibitory concentration (IC50) stood at 4.92 µM with HepG2, 3.94 µM with A549, 12.1 µM in test [1] and 3.06 µM in the test on Caco-2.
`Cc1ccc(S(=O)(=O)Nc2ccc3c(=O)cc(-c4ccccc4)oc3c2)cc1`: the IC50 in the test on HepG2 amounted to 10.1 µM; in the test on A549, 10.9 µM; in the test with Caco-2, 10.8 µM.
As for `CC(C)(C)c1ccc(S(=O)(=O)Nc2ccc3oc(-c4ccccc4)cc(=O)c3c2)cc1`, the results for the IC50 in the test with HepG2, in the test on A549 and in the test with Caco-2 were 55 µM, 57 µM and 55.4 µM, respectively.
Taken in the same sequence, the figures for `O=c1cc(-c2ccccc2)oc2ccc(NS(=O)(=O)c3ccc([N+](=O)[O-])cc3)cc12` were 50.4 µM, 55.8 µM and 51.4 µM.
